Source: patent US9403758B2, “Antibacterial agents” (Achaogen, Inc., priority 2012, dated 2016)
In brackets after ≈: the same amount, converted by molar mass.

Assays:
Type in all cases: cell-based
[1] = system: Escherichia coli ATCC25922; test: MIC broth microdilution, Escherichia coli ATCC25922 (AECO); details: 35° C., 18-24 hr, read-out: Minimum Inhibitory Concentrations (MICs) AECO
Description: (§1) Bacterial isolates were cultivated from −70° C. frozen stocks by overnight passages at 35° C. in ambient air on Mueller-Hinton agar (Beckton Dickinson, Franklin Lakes, N.J.). Clinical isolates tested were obtained from various geographically diverse hospitals in the US and abroad (Focus Diagnostics, Herndon, Va. and JMI, North Liberty, Iowa). Quality control strains were from the American Type Culture Collection (ATCC; Rockville, Md.).
(§2) Minimum Inhibitory Concentrations (MICs) were determined by the broth microdilution method in accordance with the Clinical and Laboratory Standards Institute (CLSI) guidelines. In brief, organism suspensions were adjusted to a 0.5 McFarland standard to yield a final inoculum between 3×10^5 and 7×10^5 colony-forming units (CFU)/mL. Drug dilutions and inocula were made in sterile, cation adjusted Mueller-Hinton Broth (Beckton Dickinson). An inoculum volume of 100 μL was added to wells containing 100 μL of broth with 2-fold serial dilutions of drug. All inoculated microdilution trays were incubated in ambient air at 35° C. for 18-24 hr. Following incubation, the lowest concentration of the drug that prevented visible growth (OD600 nm<0.05) was recorded as the MIC. Performance of the assay was monitored by the use of laboratory quality-control strains and levofloxacin, a compound with a defined MIC spectrum, in accordance with CLSI guidelines. Typically, compounds of the present invention have MIC values of 0.03-32 μg/mL.

[2] = system: Klebsiella pneumonia ATCC43816; test: MIC broth microdilution, Klebsiella pneumonia ATCC43816 (AKPN); details: Klebsiella pneumoniae, 35° C., 18-24 hr, read-out: Minimum Inhibitory Concentrations (MICs) AKPN
Description: as §1, §2

[3] = system: Pseudomonas aeruginosa ATCC27853; test: MIC broth microdilution, Pseudomonas aeruginosa ATCC27853 (APAE); details: 35° C., 18-24 hr, read-out: Minimum Inhibitory Concentrations (MICs) APAE
Description: as §1, §2

Row | SMILES | MIC [1] | MIC [2] | MIC [3]
1 | O=C(NO)c1cc(-c2ccc(C#CC#C[C@@H]3C[C@H]3CO)cc2)ccn1 (relative stereo) [Compound 2, N-hydroxy-4-(4-(((trans)-2-(hydroxymethyl)cyclopropyl)buta-1,3-diynyl)phenyl)picolinamide] | ≤ 1 mg/L | 8 to 16 mg/L (≈ 24.1 to 48.1 µM) | 8 to 16 mg/L (≈ 24.1 to 48.1 µM)
2 | CC(CCc1ccc(C#CC#C[C@H]2C[C@@H]2CO)cc1)(C(=O)NO)S(C)(=O)=O (relative stereo) [Compound 9, N-hydroxy-4-(4-(((trans)-2-(hydroxymethyl)cyclopropyl)buta-1,3-diynyl)phenyl)-2-methyl-2-(methylsulfonyl)butanamide] | ≤ 1 mg/L | 1 to 8 mg/L (≈ 2.57 to 20.5 µM) | ≤ 1 mg/L
3 | CC(C)(N)[C@H](NC(=O)c1cc2ccc(C#CC3C[C@H]3CO)cc2s1)C(=O)NO (stereo partly drawn) [Compound 7, N—((S)-3-amino-1-(hydroxyamino)-3-methyl-1-oxobutan-2-yl)-6-(((trans)-2-(hydroxymethyl)cyclopropyl)ethynyl)benzo[b]thiophene-2-carboxamide] | 1 to 8 mg/L (≈ 2.49 to 19.9 µM) | 8 to 16 mg/L (≈ 19.9 to 39.9 µM) | 1 to 8 mg/L (≈ 2.49 to 19.9 µM)
4 | C[S+]([O-])C(C)(C)[C@H](NC(=O)c1ccc(C#CC#C[C@H]2C[C@@H]2CO)cc1)C(=O)NO (stereo in doubt) [Compound 4, N-((2R)-1-(hydroxyamino)-3-methyl-3-(methylsulfinyl)-1-oxobutan-2-yl)-4-(((trans)-2-(hydroxymethyl)cyclopropyl)buta-1,3-diynyl)benzamide] | ≤ 1 mg/L | 8 to 16 mg/L (≈ 19.2 to 38.4 µM) | ≤ 1 mg/L
5 | CNC(=O)C(NC(=O)c1ccc(C#CC#C[C@@H]2C[C@H]2CO)cc1)C(=O)NO (stereo partly drawn) [Compound 8] | ≤ 1 mg/L | ≤ 1 mg/L | ≤ 1 mg/L
6 | CC(C)([C@H](NC(=O)c1ccc(C#CC#C[C@H]2C[C@@H]2CO)cc1)C(=O)NO)S(C)(=O)=O (stereo in doubt) [Compound 5, N—((R)-1-(hydroxyamino)-3-methyl-3-(methylsulfonyl)-1-oxobutan-2-yl)-4-(((trans)-2-(hydroxymethyl)cyclopropyl)buta-1,3-diynyl)benzamide] | ≤ 1 mg/L | ≤ 1 mg/L | ≤ 1 mg/L
7 | CSC(C)(C)[C@H](NC(=O)c1ccc(C#CC#C[C@H]2C[C@@H]2CO)cc1)C(=O)NO (stereo in doubt) [Compound 3, N—((R)-1-(hydroxyamino)-3-methyl-3-(methylthio)-1-oxobutan-2-yl)-4-(((trans)-2-(hydroxymethyl)cyclopropyl)buta-1,3-diynyl)benzamide] | ≤ 1 mg/L | ≤ 1 mg/L | ≤ 1 mg/L
8 | O=C(NO)c1cc(-c2ccc(C#CC#C[C@@H]3C[C@H]3CO)cc2)nc2ccncc12 (relative stereo) [Compound 1, N-hydroxy-2-(4-(((trans)-2-(hydroxymethyl)cyclopropyl)buta-1,3-diynyl)phenyl)-1,6-naphthyridine-4-carboxamide] | ≤ 1 mg/L | ≤ 1 mg/L | 8 to 16 mg/L (≈ 20.9 to 41.7 µM)
9 | CC(C)(N)[C@H](NC(=O)c1ccc2cc(C#CC3C[C@@H]3CO)ccc2c1)C(=O)NO (stereo partly drawn) [Compound 6, N—((S)-3-amino-1-(hydroxyamino)-3-methyl-1-oxobutan-2-yl)-6-(((trans)-2-(hydroxymethyl)cyclopropyl)ethynyl)-2-naphthamide] | 1 to 8 mg/L (≈ 2.53 to 20.2 µM) | 8 to 16 mg/L (≈ 20.2 to 40.5 µM) | ≤ 1 mg/L
